Here are results for seven compounds from PMC13031153 (Acta Pharmaceutica Sinica. B, 2025).

Where two headings read alike, the source gives them in different places.

One test relates to δ/μ^N-terminal Chimera. It is filed as cell-based, mouse.
In the next test the test system is μ-OR over δ-OR. Conditions: cited from earlier work.
In the next test the test system is δ-OR. The note with it: cited from earlier work.
Test [1] deals with mouse δ-opioid receptor, wild type (mouse) (UniProt P32300). Description: MST.
The target of test [2] is mδ-OR-3M-PSA(28–30)-LGG (mouse) (UniProt P32300). Description: MST.
The target of another test is mδ-OR-R291^ECL3A (mouse) (UniProt P32300). Description: MST.
The next test addresses mδ-OR-K108^2.63N (mouse) (UniProt P32300). Briefly: MST.
The target of test [3] is mδ-OR-K108^2.63N-L125^3.29I-R291^ECL3A (mouse) (UniProt P32300). Description: MST.
For another test, the target named is mδ-OR-R292^ECL3E (mouse) (UniProt P32300). Briefly: MST.
Another test concerns mδ-OR and its variants. Description: Maximal K+ current density evoked by saturating full agonist, mδ-OR variants. It is filed as cell-based, mouse.
Another test deals with mμ-OR mutants. It is filed as cell-based, mouse. Conditions: mμ-OR mutations at D^3.32, Y^3.33, V^5.43, I^6.51 (Fig. 5J).
Test [4] has as its system WT mδ-OR, mδ-OR-Q190^ECL2H, mδ-OR-Q201^ECL2H, mδ-OR-S45^N-terminalH, mδ-OR-E112^ECL1H. It is filed as cell-based, mouse.
The subject of the next test is mδ-OR mutants. Type of test: cell-based, mouse.
The next test deals with hκ-OR. Conditions: cited from earlier work.

As a reminder, the EC50 is the concentration that produces a half-maximal response. The low end stands for an effect from little substance, the high end for a need for much substance. Take `CC[C@H](C)[C@H](NC(=O)[C@H](C)NC(=O)[C@H](CC(N)=O)NC(=O)[C@H](CCCCN)NC(=O)[C@H](Cc1ccccc1)NC(=O)[C@H](CC(C)C)NC(=O)[C@@H](NC(=O)[C@@H](NC(=O)[C@H](CC(C)C)NC(=O)[C@@H]1CCCN1C(=O)[C@@H](NC(=O)[C@H](CCC(N)=O)NC(=O)[C@H](CO)NC(=O)[C@H](CCCCN)NC(=O)[C@H](CCC(=O)O)NC(=O)[C@H](CO)NC(=O)[C@@H](NC(=O)[C@H](CCSC)NC(=O)[C@H](Cc1ccccc1)NC(=O)CNC(=O)CNC(=O)[C@@H](N)Cc1ccc(O)cc1)[C@@H](C)O)[C@@H](C)O)C(C)C)[C@@H](C)O)C(=O)N[C@H](C(=O)N[C@@H](CCCCN)C(=O)N[C@@H](CC(N)=O)C(=O)N[C@@H](C)C(=O)N[C@@H](Cc1ccc(O)cc1)C(=O)N[C@@H](CCCCN)C(=O)N[C@@H](CCCCN)C(=O)NCC(=O)N[C@@H](CCC(=O)O)C(=O)O)[C@@H](C)CC` [β-endorphin]: the EC50 with δ/μ^N-terminal Chimera turned out to be 10.3 ± 0.9 nM. Further, in the test on μ-OR over δ-OR, the “preference between μ-OR and δ-OR” value was “no discernible preference”.

For the compound deltorphin, the “selectivity for δ-OR” value with δ-OR is recorded as “more than 1000 fold”.

The term Kd denotes the concentration at which binding is half-saturated. endomorphin-1 (peptide): the Kd in [1] was 2940 nM; in [2] it was 1.03 nM; with mδ-OR-R291^ECL3A (mouse), 344 nM; in the test with mδ-OR-K108^2.63N (mouse), 299 nM; in test [3], 9.42 nM; with mδ-OR-R292^ECL3E (mouse), 408 nM.

Turning to Leu-enkephalin, in the test on mδ-OR and its variants, the “maximum currents vs wild-type receptor” value is “statistically indistinguishable from wild-type receptor”.

Take `CN1CC[C@]23c4c5ccc(O)c4O[C@H]2[C@@H](O)C=C[C@H]3[C@H]1C5` [morphine]: the “agonist-induced activation of mutants” value with mμ-OR mutants is listed as “significant reductions”; in the test with mδ-OR mutants (mδ-OR mutations at D^3.32, Y^3.33, V^5.43, I^6.51 (Fig. 5H)), “significant reductions”. For the same compound, the “effect of ZnCl2 on agonist activation (control)” value is given as “did not alter” in test [4] (1 mmol/L ZnCl2, WT mδ-OR, mδ-OR-Q190^ECL2H, mδ-OR-Q201^ECL2H) and “did not alter” in test [4] (3 mmol/L ZnCl2, mδ-OR-S45^N-terminalH, mδ-OR-E112^ECL1H). Besides, the “change in potency for mδ-OR” value with mδ-OR mutants (mutations of K108^2.63 to Ala or Asn) is “increased the potency”.

Regarding `CC(C)[C@@H](CN1CC[C@@](C)(c2cccc(O)c2)[C@@H](C)C1)NC(=O)[C@H]1Cc2ccc(O)cc2CN1` [JDTic], the “selectivity for hκ-OR” value with hκ-OR was “more than 1000 fold”.

Turning to endomorphin-2 [EM-2], the “μ-OR selectivity over δ-OR” value in the test with μ-OR over δ-OR is on record as > 1500 fold.
